Experimental data as given in patent US9844519B1, “Method of treating TDP-43 proteinopathies using hexachlorophene” (University of South Florida, priority 2014, dated 2017).
Read-outs that look alike come from different tables or passages of the source. Peptide text beside a SMILES is read from it. * marks the point of attachment. Cbz = O=C(OCc1ccccc1)*

Legend:
TDP-43 = biological target: T1, TDP-43 (Mus musculus, UniProt Q921F2); assay: InCell Western (ICW) drug screen for TDP-43 levels in N9 cells; type: cell-based; conditions: for % TDP43 level: N9 cells treated 24 hours, DMSO vehicle control = 100
T1 construct: N9 cells expressing endogenous TDP-43 were treated with various concentrations of B10; endogenous in cells; host or cells: N9 mouse microglial cells
Experimental: To optimize the ICW technique for screening TDP-43 targeting drugs, N9 cells were seeded in a 96-well plate and processed for ICW by using various dilution of TDP-43 antibody.
For drug screening, N9 cells were treated with a panel of candidate drug molecules for 24 hours and the effect on TDP-43 levels was analyzed using the InCell Western assay.
To optimize TDP-43 targeting ICW, N9 cells were seeded in a 96-well plate and probed with different dilutions of TDP-43 antibody as previously described (Jinwal and Dickey, 2011). For the identification of candidate drug molecules, N9 cells were treated with an array of drugs for 24 hours and processed for ICW (Jinwal and Dickey, 2011). In brief, cells were fixed, washed with PBS and incubated in blocking buffer. Cells were then incubated in primary antibody to TDP-43 (1:1000) and GAPDH (1:3000) for overnight. After washing with 0.2% Tween-20 PBS, cells were incubated with fluorescently tagged secondary antibodies for 1 hour and 30 minutes. Fluorescence intensity was then recorded and quantified using the Odyssey Infrared Imaging System (LI-COR). ICW experiments were performed in duplicate.

endogenous TDP-43 [1] = biological target: T2, endogenous TDP-43 (Mus musculus, UniProt Q921F2); assay: Western blotting of endogenous TDP-43 in N9 cells, dose response; type: cell-based; conditions: 3 μM, 24 hours, Western blot
T2 construct: N9 cells expressing endogenous TDP-43 were treated with various concentrations of B10; endogenous in cells; host or cells: N9 mouse microglial cells
Experimental: N9 cells were treated with different concentration of B10 for 24 hours and levels of endogenous TDP-43 were determined by Western blotting.
For dose response experiments, N9 cells were treated with different concentrations of B10 for 24 hours. […] An equivalent volume of DMSO was used for control treatments for both sets of experiments. […] Briefly, cells were lysed in Mammalian-Protein Extraction Reagent (M-PER; Pierce, Rockford, Ill.) containing 1× protease inhibitor mixture (Calbiochem, Billerica, Mass.), 1 mM phenylmethylsulfonyl fluoride (PMSF) and 1× phosphatase inhibitor I and II cocktails (Sigma). Protein concentration was determined using the Coomassie (Bradford) Protein Assay Kit (Pierce). Samples were analyzed for Myc and GAPDH by Western blotting. […] Drug treatment experiments were repeated at least two times.

[2] = system: Myc-tagged WT TDP-43, C25 mutant, M337V and Q331K; assay: Western blotting of Myc-tagged WT and mutant TDP-43 transfected in HEK293 cells; type: cell-based; conditions: HEK293 cells transfected with Myc-tagged WT, 3 μM, 24 hours
HEK293 cells = type: cell-based; conditions: human, 24 h
Experimental: (§1) Whether B10 treatment causes cytotoxicity was next tested. The inventors performed the LDH assay with N9 and HEK293 cells. […] B10 causes ˜3% and ˜13% cytotoxicity at 3 and 10 μM in the HEK293 cells, respectively (FIG. 5B).
(§2) The LDH assay was performed using the CytoTox 96 Non-Radioactive Cytotoxicity Assay from Promega as per manufacturer's instructions. Briefly, N9 and HEK cells were treated with different concentrations of hexachlorophene for 24 hours. Cells treated with a lethal dose of 150 μM hexachlorophene were used as the maximal LDH release control. Culture supernatant was collected and centrifuged at 2000 rpm to pellet debris. 50 μl of supernatant from each sample was transferred to a flat-bottom 96 well plate. The Substrate Mix provided in the kit was reconstituted with Assay Buffer. 50 μl of the reconstituted Substrate Mix was added to the culture supernatant. The plate was incubated at room temperature, protected from light, for 30 minutes. 50 μl of Stop Solution was added to each well at the end of the incubation period. Absorbance was read at 490 nm. The experiment was performed in triplicate for each cell line. Statistical analysis was performed using Microsoft Excel.

N9 cells = type: cell-based; conditions: mouse, 24 h
Experimental: as §1, §2

endogenous TDP-43 [3] = biological target: T3, endogenous TDP-43 (Homo sapiens, UniProt Q13148); assay: Western blotting of endogenous TDP-43 in HEK293 cells; type: cell-based; conditions: endogenous TDP-43, 3 μM, 24 hours, Western blot
T3 construct: HEK293 cells expressing endogenous TDP-43 and FUS; endogenous in cells; host or cells: HEK293
Experimental: (§3) HEK293 cells were treated with 3 and 10 μM B10 for 24 hours. An equivalent volume of DMSO was used for control treatments. […] Briefly, cells were lysed in Mammalian-Protein Extraction Reagent (M-PER; Pierce, Rockford, Ill.) containing 1× protease inhibitor mixture (Calbiochem, Billerica, Mass.), 1 mM phenylmethylsulfonyl fluoride (PMSF) and 1× phosphatase inhibitor I and II cocktails (Sigma). Protein concentration was determined using the Coomassie (Bradford) Protein Assay Kit (Pierce). Samples were analyzed using TDP-43, FUS, and GAPDH antibodies by Western blotting. Drug treatment experiments were performed in triplicate. For ubiquitinated protein analysis upon MG132 treatment, ubiquitin antibody (Santa Cruz Biotechnology) was used. Statistical analysis was performed using Microsoft Excel.

FUS (Fused in Sarcoma) = assay: Western blotting of endogenous FUS in HEK293 cells; type: cell-based
Experimental: as §3

C25 mutant of TDP-43 = biological target: T4, C25 mutant of TDP-43 (Homo sapiens, UniProt Q13148); assay: Immunofluorescence of cytoplasmic C25 mutant TDP-43 in HEK293 cells; type: cell-based; conditions: 3 μM, 24 hours
T4 construct: the C25 cleaved fragment that localizes to the cytosol; expressed in transfected cells; host or cells: HEK293
Experimental: 24 hours after transfection, the medium was replaced and cells were treated with either DMSO or 3 μM B10 for 24 hours. […] Following three washes in PBS, cells were incubated in blocking buffer (1% BSA, 0.1% Tween-20 in PBS) for one hour. A mouse monoclonal antibody to the Myc tag at a dilution of 1:400 was applied for 1 hour. After three washes in PBS, cells were incubated with an Alexa488 tagged goat anti-mouse IgG secondary antibody at 1:800 for 1 hour. […] Coverslips were mounted on slides using Fluoromount G. Imaging was performed with a Zeiss AxioVision imager.

ubiquitinated proteins = assay: Western blot of ubiquitinated proteins in HEK293 cell samples; type: cell-based; conditions: HEK293 samples from FIG. 4A, 24 hours, ubiquitin antibody
Experimental: as §3

[4] = system: C25-TDP-43 transgenic C. elegans; assay: Liquid thrashing motility assay in C25-TDP-43 transgenic C. elegans; type: in vivo; conditions: C25 worms on NGM plates containing 5 μM or 10 μM B10
Experimental: (§4) For in vivo studies the inventors used a C. elegans model expressing the C25 fragment to analyze changes in behavior and pathological TDP-43 upon B10 treatment.
(§5) The Solid Method of drug dosing was used in which age-synchronized C. elegans eggs were plated on Nematode Growth Media (NGM) plates containing DMSO vehicle or 5 μM B10 or 10 μM B10.
(§6) A behavioral assay that measures liquid thrashing ability was used to analyze the effect of B10 treatment on motility in age synchronized C25 animals. For microscopic analysis adult worms were fixed on slide and imaged using fluorescence microscopy.

C25-TDP-43 = biological target: T5, C25-TDP-43 (Homo sapiens, UniProt Q13148); assay: Fluorescence microscopy of C25-TDP-43 aggregates in head neurons of transgenic C. elegans; type: in vivo; conditions: C25 worms
T5 construct: a C. elegans model expressing the C25 fragment; expressed in transfected cells; host or cells: transgenic C. elegans (neurons)
Experimental: as §4, §5, §6

[5] = dose of about 10 mg/kg, transgenic TDP43 mouse model; cited from earlier work
[6] = system: Wnt-β-catenin signaling pathway; conditions: B lymphoma cells; cited from earlier work
amyloid beta (Aβ) = biological target: T6, amyloid beta (Aβ) (Homo sapiens, UniProt P05067); conditions: cited from earlier work
T6 construct: the amyloid protein (Aβ) which is a proteolytic product of a precursor protein of much larger size

[7] = system: primary neuronal cultures; conditions: cited from earlier work
rats = conditions: pre-treatment prior to administration of B10; cited from earlier work

T1 sequence (Q921F2 whole entry): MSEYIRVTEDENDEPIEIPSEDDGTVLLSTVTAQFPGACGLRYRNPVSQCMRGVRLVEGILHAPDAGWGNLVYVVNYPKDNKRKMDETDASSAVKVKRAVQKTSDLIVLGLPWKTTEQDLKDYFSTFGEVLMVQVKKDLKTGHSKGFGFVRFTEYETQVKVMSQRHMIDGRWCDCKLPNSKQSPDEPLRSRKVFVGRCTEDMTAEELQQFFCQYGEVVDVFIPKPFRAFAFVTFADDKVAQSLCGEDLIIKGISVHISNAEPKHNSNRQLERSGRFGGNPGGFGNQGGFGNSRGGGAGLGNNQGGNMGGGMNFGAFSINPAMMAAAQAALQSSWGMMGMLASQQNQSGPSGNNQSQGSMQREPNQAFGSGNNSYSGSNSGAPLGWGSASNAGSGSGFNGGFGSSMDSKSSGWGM
T2 sequence (Q921F2 whole entry): as above
T5 sequence (Q13148 219-414 limits assumed): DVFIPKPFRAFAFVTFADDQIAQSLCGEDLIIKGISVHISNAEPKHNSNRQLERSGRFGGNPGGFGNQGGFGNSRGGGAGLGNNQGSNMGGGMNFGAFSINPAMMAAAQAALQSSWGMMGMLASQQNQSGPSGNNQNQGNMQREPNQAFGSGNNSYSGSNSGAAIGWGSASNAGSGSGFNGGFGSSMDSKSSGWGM
T4 sequence (Q13148 219-414 limits assumed, change not shown): as the sequence (Q13148 219-414 limits assumed) above
T6 sequence (P05067 672-713 limits assumed): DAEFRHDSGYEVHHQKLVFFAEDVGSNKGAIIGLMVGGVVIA
T3 sequence (Q13148 whole entry): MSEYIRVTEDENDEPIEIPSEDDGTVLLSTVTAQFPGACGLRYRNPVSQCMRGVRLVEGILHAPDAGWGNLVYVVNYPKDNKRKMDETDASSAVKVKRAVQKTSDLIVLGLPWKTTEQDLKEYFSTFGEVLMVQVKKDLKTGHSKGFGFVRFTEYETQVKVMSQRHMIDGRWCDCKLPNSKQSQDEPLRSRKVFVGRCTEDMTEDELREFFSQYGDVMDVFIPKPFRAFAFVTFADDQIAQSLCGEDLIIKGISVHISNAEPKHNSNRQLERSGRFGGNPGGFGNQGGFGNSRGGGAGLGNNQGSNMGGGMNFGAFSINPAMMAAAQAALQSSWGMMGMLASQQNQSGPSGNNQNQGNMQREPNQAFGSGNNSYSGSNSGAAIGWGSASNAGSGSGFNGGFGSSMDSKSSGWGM

OCCN1CCN(CCCN2c3ccccc3Sc3ccc(Cl)cc32)CC1 [B5, Perphenazine]
% TDP43 level (TDP-43): 85%

CO[C@H]1/C=C/O[C@@]2(C)Oc3c(C)c(O)c4c(O)c(c(/C=N/N5CCN(C)CC5)c(O)c4c3C2=O)NC(=O)/C(C)=C\C=C\[C@H](C)[C@H](O)[C@@H](C)[C@@H](O)[C@@H](C)[C@H](OC(C)=O)[C@@H]1C [B6, Rifampicin]
% TDP43 level (TDP-43): 103%

Nc1ccc(S(=O)(=O)c2ccc(N)cc2)cc1 [B7, Dapsone]
% TDP43 level (TDP-43): 100%

NS(=O)(=O)c1cc2c(cc1C(F)(F)F)NCNS2(=O)=O [B8, Hydroflumethiazide]
% TDP43 level (TDP-43): 89%

Oc1c(Cl)cc(Cl)c(Cl)c1Cc1c(O)c(Cl)cc(Cl)c1Cl [B10, Hexachlorophene]
% TDP43 level (TDP-43): 63% | decrease in levels of TDP-43 compared to the control (TDP-43; N9 cells, 24 hours): ~40% | reduction of endogenous TDP-43 levels (endogenous TDP-43 [1]): approximately 50% | decrease in levels of TDP-43 and its mutants [2]: approximately 50% | cytotoxicity (LDH release) (HEK293 cells; 3 μM): ~3% | cytotoxicity (LDH release) (HEK293 cells; 10 μM): ~13% | cytotoxicity (LDH release) (N9 cells; 3 μM): ~6% | cytotoxicity (LDH release) (N9 cells; 10 μM): ~23% | reduction of TDP-43 levels (endogenous TDP-43 [3]): ~50% | effect on levels of FUS (FUS (Fused in Sarcoma)): increases levels of FUS | increase of FUS levels (FUS (Fused in Sarcoma); 3 μM, 24 hours, Western blot): ~300% | amount of cytoplasmic C25 mutant TDP-43 (C25 mutant of TDP-43): decreases the amount of cytoplasmic C25 mutant TDP-43 | levels of ubiquitinated proteins (ubiquitinated proteins): slight increase in ubiquitinated proteins | motility (liquid thrashing) [4]: improved motility of C25 worms | accumulation of TDP-43 in neurons in the head region (C25-TDP-43): decreased the accumulation of TDP-43 in the neurons in the head region of C25 worms | brain permeability [5]: 50% | effect on Wnt-β-catenin signaling pathway [6]: inhibit the Wnt-β-catenin signaling pathway in B lymphoma cells | effect on Aβ fibril formation (amyloid beta (Aβ)): inhibit amyloid beta (Aβ) fibril formation | protection from Aβ-induced toxicity [7]: protect primary neuronal cultures from Aβ-induced toxicity

C[N+](C)(C)C[C@H](O)CC(=O)[O-] [L-carnitine]
protection from toxicity induced by B10 (rats): protected rats from the toxicity of B10

CC(C)C[C@@H](C=O)NC(=O)[C@H](CC(C)C)NC(=O)[C@H](CC(C)C)NC(=O)OCc1ccccc1 [MG132] (Cbz-Leu-Leu-Leu-aldehyde)
levels of ubiquitinated proteins (ubiquitinated proteins): increase in ubiquitinated proteins

CCCC(C(=O)OCCN(CC)CC)(c1ccccc1)c1ccccc1.Cl [SKF-525A, 2-diethylaminoethyl-2,2-diphenylvalerate-Hcl]
protection from toxicity induced by B10 (rats): lessened toxicity

CCOc1ccc2c(c1)C(C)=CC(C)(C)N2 [ethoxyquin]
protection from toxicity induced by B10 (rats): protects rats from toxicity induced by B10
